This passage reports Ki results from patent publication US8173635B2, “Kinase inhibitors” (Vertex Pharmaceuticals Incorporated, priority 2007, dated 2012).

Common to all, as to type: biochemical
For one test, the target named is PKC theta kinase (Homo sapiens, UniProt Q04759). Briefly: PKC theta kinase inhibition, coupled-enzyme NADH absorbance assay (Ki). As to conditions: 240 μM ATP, 18 nM PKC theta, 30° C.; read-out: Ki PKC theta. An outline of the steps: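 Coupled-enzyme kinase assay following NADH absorbance at 340 nm, in 100 mM HEPES pH 7.5, 10 mM MgCl2, 25 mM NaCl, 0.1 mM EDTA, 0.01% Brij. Compound in DMSO preincubated with enzyme 10 min at 30 °C. Ki from initial rates by non-linear regression.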
Sequence of PKC theta kinase (Q04759 whole entry): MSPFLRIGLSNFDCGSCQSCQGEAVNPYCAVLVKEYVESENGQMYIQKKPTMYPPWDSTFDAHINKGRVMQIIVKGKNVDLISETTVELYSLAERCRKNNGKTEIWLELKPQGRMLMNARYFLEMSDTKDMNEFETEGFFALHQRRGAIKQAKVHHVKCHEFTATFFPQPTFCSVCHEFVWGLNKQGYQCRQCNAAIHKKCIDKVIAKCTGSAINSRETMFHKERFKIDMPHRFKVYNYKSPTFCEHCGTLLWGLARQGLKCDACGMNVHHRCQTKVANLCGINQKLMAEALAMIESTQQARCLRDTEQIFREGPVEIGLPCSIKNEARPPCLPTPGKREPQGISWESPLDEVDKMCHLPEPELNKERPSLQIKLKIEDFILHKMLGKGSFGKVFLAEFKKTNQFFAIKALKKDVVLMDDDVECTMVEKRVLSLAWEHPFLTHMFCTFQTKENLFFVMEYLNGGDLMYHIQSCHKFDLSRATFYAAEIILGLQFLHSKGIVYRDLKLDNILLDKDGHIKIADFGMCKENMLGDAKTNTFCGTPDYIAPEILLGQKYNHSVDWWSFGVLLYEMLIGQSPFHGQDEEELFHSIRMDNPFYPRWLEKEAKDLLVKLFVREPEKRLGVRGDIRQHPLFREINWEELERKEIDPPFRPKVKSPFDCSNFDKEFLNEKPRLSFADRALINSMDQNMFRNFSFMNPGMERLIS

In the next test the target is PKC delta kinase (Homo sapiens, UniProt Q05655). Briefly: PKC delta kinase inhibition, coupled-enzyme NADH absorbance assay (Ki). As to conditions: 150 μM ATP, 46 nM PKC delta, 30° C.; read-out: Ki PKC delta. The gist of the method: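 Assay buffer was 100 mM HEPES pH 7.5, 10 mM MgCl2, 25 mM NaCl, 0.1 mM EDTA, 0.01% Brij. Enzyme buffer was equilibrated with compound in DMSO for 10 min at 30 °C. Ki values were derived by non-linear regression of initial rate data.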
Sequence of PKC delta kinase (Q05655 whole entry): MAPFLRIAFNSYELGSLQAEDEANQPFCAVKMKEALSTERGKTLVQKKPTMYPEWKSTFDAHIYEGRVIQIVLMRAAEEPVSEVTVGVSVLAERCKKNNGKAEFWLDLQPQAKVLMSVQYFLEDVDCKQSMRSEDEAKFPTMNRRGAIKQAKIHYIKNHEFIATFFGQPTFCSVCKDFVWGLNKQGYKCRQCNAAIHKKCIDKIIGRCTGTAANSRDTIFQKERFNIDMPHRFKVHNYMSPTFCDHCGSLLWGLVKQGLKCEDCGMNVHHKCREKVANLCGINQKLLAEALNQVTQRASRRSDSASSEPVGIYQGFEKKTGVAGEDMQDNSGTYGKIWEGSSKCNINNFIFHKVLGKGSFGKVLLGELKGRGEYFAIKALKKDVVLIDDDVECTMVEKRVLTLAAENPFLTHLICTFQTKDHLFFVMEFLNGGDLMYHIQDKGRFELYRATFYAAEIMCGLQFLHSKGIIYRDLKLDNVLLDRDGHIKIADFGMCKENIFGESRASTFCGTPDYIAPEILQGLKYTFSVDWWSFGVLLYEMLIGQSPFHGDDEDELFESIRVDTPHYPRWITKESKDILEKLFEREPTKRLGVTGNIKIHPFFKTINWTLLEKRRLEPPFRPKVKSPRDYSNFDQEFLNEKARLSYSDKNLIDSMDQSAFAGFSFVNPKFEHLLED

The next test deals with PKC alpha kinase (Homo sapiens, UniProt P17252). Briefly: PKC alpha kinase inhibition, coupled-enzyme NADH absorbance assay (Ki). As to conditions: 130 μM ATP, 4.5 nM PKC alpha, 30° C.; read-out: Ki PKC alpha.

Molecules are shown by their SMILES.

Consider `N#CC1(c2cccc(-c3ccnc4[nH]nc(C(F)(F)F)c34)c2)CCC1` [Compound 279], for which the values for the Ki on PKC theta kinase, on PKC delta kinase and on PKC alpha kinase were less than 50 nM, less than 2800 nM and less than 2800 nM, respectively.

For the molecule `CCC(C)(C#N)c1cccc(-c2ccnc3[nH]ncc23)c1` (stereo not drawn) [Compound 64, 2-(3-(1H-pyrazolo[3,4-b]pyridin-4-yl)phenyl)-2-methylbutanenitrile], the Ki on PKC theta kinase is less than 500 nM; on PKC delta kinase, less than 2800 nM; on PKC alpha kinase, less than 2800 nM.

For the molecule `CCC(F)(CN)c1cc(C)cc(-c2ccnc3[nH]ncc23)c1` (stereo not drawn) [Compound 227], the Ki was less than 50 nM on PKC theta kinase, less than 2800 nM on PKC delta kinase and less than 500 nM on PKC alpha kinase.

For `C=CCC1(c2cc(C)cc(-c3ccnc4[nH]ncc34)c2)CNC(=O)O1` (stereo not drawn) [Compound 325], the Ki at PKC theta kinase was less than 500 nM; on PKC delta kinase it was greater than 1200 nM; on PKC alpha kinase, less than 500 nM.

For the molecule `CCCC(C)(CN)c1cccc(-c2ccnc3[nH]ncc23)c1` (stereo not drawn) [Compound 51], the Ki at PKC theta kinase is less than 50 nM; at PKC delta kinase, less than 50 nM; on PKC alpha kinase, less than 500 nM.

Take `CC(C)(O)C#Cc1cc(-c2ccnc3[nH]nc(C(F)(F)F)c23)cc(C2(C#N)CC2)c1` [Compound 315]: the figures for the Ki at PKC theta kinase, at PKC delta kinase and at PKC alpha kinase were less than 2800 nM, greater than 1200 nM and greater than 1200 nM, respectively.

For the molecule `NCC1(c2cc(-c3ccnc4[nH]ncc34)cc(C(F)(F)F)c2)CCC1` [Compound 140], the Ki at PKC theta kinase was less than 500 nM; on PKC delta kinase it was less than 2800 nM; at PKC alpha kinase, less than 2800 nM.

For the molecule `NC(CCC1CCCCC1)c1cccc(-c2ccnc3[nH]ncc23)c1` (stereo not drawn) [Compound 252], the values for the Ki on PKC theta kinase, on PKC delta kinase and on PKC alpha kinase were greater than 700 nM, greater than 1200 nM and greater than 1200 nM, respectively.

As for `CC#CC[C@](C)(CN)c1cccc(-c2ccnc3[nH]ncc23)c1` [Compound 185], the Ki at PKC theta kinase, on PKC delta kinase and on PKC alpha kinase was less than 50 nM in each case.

Regarding `CCC(C)(C#N)c1cc(CCCO)cc(-c2ccnc3[nH]ncc23)c1` (stereo not drawn) [Compound 103], the Ki at PKC theta kinase was less than 50 nM; on PKC delta kinase, greater than 2000 nM; at PKC alpha kinase it was less than 2800 nM.

For `OCC1(c2cccc(-c3ccnc4[nH]ncc34)c2)CCC1` [Compound 242], the Ki at PKC theta kinase is less than 500 nM; at PKC delta kinase it was greater than 2000 nM; on PKC alpha kinase it was greater than 1200 nM.

On to `CC(O)c1cccc(-c2ccnc3[nH]ncc23)c1` (stereo not drawn) [Compound 244], for which the Ki on PKC theta kinase was greater than 700 nM; at PKC delta kinase, greater than 1200 nM; at PKC alpha kinase it was greater than 1200 nM.

Consider `CCC1(c2cccc(-c3ccnc4[nH]ncc34)c2)CNC(=O)O1` (stereo not drawn) [Compound 254], for which the results for the Ki at PKC theta kinase, on PKC delta kinase and on PKC alpha kinase were less than 50 nM, less than 500 nM and less than 500 nM, respectively.

As for `CCC(F)(CN)c1cc(C)cc(-c2ccnc3[nH]nc(C(F)(F)F)c23)c1` (stereo not drawn) [Compound 293], the figures for the Ki on PKC theta kinase, on PKC delta kinase and at PKC alpha kinase were less than 50 nM, less than 500 nM and less than 500 nM, respectively.

`CCC(O)(c1cc(C)cc(-c2ccnc3[nH]nc(C(F)(F)F)c23)c1)C1CNC1` (stereo not drawn) [Compound 314]: the figures for the Ki at PKC theta kinase, on PKC delta kinase and on PKC alpha kinase were less than 50 nM, less than 500 nM and less than 2800 nM, respectively.

As to `Cc1cc(-c2ccnc3[nH]ncc23)cc(C(C)(C)CN)c1` [Compound 32], the Ki is less than 50 nM at PKC theta kinase, less than 500 nM on PKC delta kinase and less than 500 nM on PKC alpha kinase.

Regarding `NC[C@]1(c2cccc(-c3ccnc4[nH]ncc34)c2)CC[C@H](O)CC1` [Compound 183], the Ki on PKC theta kinase is less than 500 nM; on PKC delta kinase, less than 2800 nM; on PKC alpha kinase, greater than 1200 nM.

For the molecule `CCC(C)(CN)c1cc(-c2ccnc3[nH]ncc23)cc(C(C)(F)F)c1` (stereo not drawn) [Compound 165], the Ki at PKC theta kinase was less than 50 nM; at PKC delta kinase, less than 500 nM; at PKC alpha kinase it was less than 500 nM.

As to `CC#CCC(C)(CN)c1cc(C)cc(-c2ccnc3[nH]ncc23)c1` (stereo not drawn) [Compound 234], the Ki at PKC theta kinase was less than 50 nM; at PKC delta kinase, less than 50 nM; on PKC alpha kinase, less than 500 nM.

Take `COc1cccc(CC(C)(CN)c2cccc(-c3ccnc4[nH]ncc34)c2)c1` (stereo not drawn) [Compound 173]: the values for the Ki on PKC theta kinase, at PKC delta kinase and at PKC alpha kinase were less than 50 nM, less than 500 nM and less than 500 nM, respectively.

In the case of `Cc1cc(-c2ccnc3[nH]nc(Cl)c23)cc(C2(CN)CCOCC2)c1` [Compound 209], the Ki is less than 50 nM at PKC theta kinase, less than 500 nM on PKC delta kinase and less than 500 nM on PKC alpha kinase.

`CCC(C)(CN)c1cc(CCCO)cc(-c2ccnc3[nH]ncc23)c1` (stereo not drawn) [Compound 156]: the Ki was less than 50 nM on PKC theta kinase, less than 2800 nM on PKC delta kinase and less than 500 nM on PKC alpha kinase.

For the molecule `COCC(C)(CN)c1cccc(-c2ccnc3[nH]ncc23)c1` (stereo not drawn) [Compound 150], the Ki on PKC theta kinase is less than 50 nM; on PKC delta kinase, less than 500 nM; on PKC alpha kinase, less than 2800 nM.

For `CC[C@](C)(CN)c1cccc(-c2ccnc3[nH]ncc23)c1` [Compound 151], the Ki at PKC theta kinase is less than 50 nM; on PKC delta kinase it was less than 50 nM; at PKC alpha kinase it was less than 500 nM.

For `CC(C)C(O)c1cc(-c2ccnc3[nH]ncc23)cc(C(C)(C)C#N)c1` (stereo not drawn) [Compound 19], the Ki is less than 500 nM on PKC theta kinase, greater than 2800 nM on PKC delta kinase and greater than 2800 nM at PKC alpha kinase.

In the case of `Cc1cc(/C(=C/C#N)CN)cc(-c2ccnc3[nH]ncc23)c1` [Compound 323], the Ki was less than 500 nM at PKC theta kinase, less than 2800 nM on PKC delta kinase and less than 500 nM at PKC alpha kinase.

For `C#Cc1cc(-c2ccnc3[nH]ncc23)cc(C(C)(C)CN)c1` [Compound 40], the figures for the Ki on PKC theta kinase, at PKC delta kinase and on PKC alpha kinase were less than 500 nM, less than 500 nM and less than 2800 nM, respectively.

On to `CC#CC1(c2cc(C)cc(-c3ccnc4[nH]nc(C(F)(F)F)c34)c2)CNC(=O)O1` (stereo not drawn) [Compound 295], for which the Ki was greater than 700 nM on PKC theta kinase, greater than 1200 nM at PKC delta kinase and greater than 1200 nM on PKC alpha kinase.

As to `CC(C#N)(Cc1ccccn1)c1cccc(-c2ccnc3[nH]ncc23)c1` (stereo not drawn) [Compound 115], the Ki on PKC theta kinase was greater than 700 nM; at PKC delta kinase it was greater than 2000 nM; at PKC alpha kinase, greater than 1200 nM.

On to `N#CC(CCN)c1cccc(-c2ccnc3[nH]ncc23)c1` (stereo not drawn) [Compound 225], for which the values for the Ki on PKC theta kinase, at PKC delta kinase and on PKC alpha kinase were less than 500 nM, less than 2800 nM and less than 2800 nM, respectively.

In the case of `CC(CN)(CC1CC1)c1cccc(-c2ccnc3[nH]ncc23)c1` (stereo not drawn) [Compound 129], the Ki on PKC theta kinase is less than 50 nM; on PKC delta kinase it was less than 50 nM; at PKC alpha kinase, less than 500 nM.

Take `CC(C#N)(Cc1cccnc1)c1cccc(-c2ccnc3[nH]ncc23)c1` (stereo not drawn) [Compound 116]: the Ki at PKC theta kinase is greater than 700 nM; at PKC delta kinase it was greater than 2000 nM; at PKC alpha kinase it was greater than 1200 nM.

Turning to `COc1ccc(C2(CN)CCC2)cc1-c1ccnc2[nH]ncc12` [Compound 222], the results for the Ki at PKC theta kinase, on PKC delta kinase and on PKC alpha kinase were greater than 700 nM, greater than 2000 nM and greater than 1200 nM, respectively.

On to `C/C=C/c1cc(-c2ccnc3[nH]ncc23)cc(C(C)(C)C#N)c1` [Compound 54], for which the Ki was less than 500 nM on PKC theta kinase, greater than 2800 nM at PKC delta kinase and greater than 2800 nM on PKC alpha kinase.

For the molecule `CC(CC#N)c1cc(Br)cc(-c2ccnc3[nH]ncc23)c1` (stereo not drawn) [Compound 238], the values for the Ki on PKC theta kinase, at PKC delta kinase and on PKC alpha kinase were less than 500 nM, less than 2800 nM and less than 2800 nM, respectively.

As for `CC(C)(C#N)c1cc(Br)cc(-c2ccnc3[nH]ncc23)c1` [Compound 18], the results for the Ki at PKC theta kinase, on PKC delta kinase and at PKC alpha kinase were less than 50 nM, less than 2800 nM and less than 2800 nM, respectively.
